Experimental data reported in ChEMBL document CHEMBL3137667, “[Drug-induced liver injury; fourteenth updated edition of the bibliographic database of liver injuries and related drugs]” (Gastroenterol Clin Biol, 2004).

Experiments:
[1] = Highest frequency of moderate liver toxicity observed during clinical trials, expressed as a percentage. [column '% BIOL' in source]; details: human
[2] = Highest frequency of acute liver toxicity observed during clinical trials, expressed as a percentage. [column '% AIGUE' in source]; details: human
[3] = Presence of at least one case with successful reintroduction. [column 'REINT' in source]; details: human
[4] = Times to onset, minimal and maximal, observed in the indexed observations. [column 'DELAI' in source]; details: human
[5] = human, serum
[6] = human, serum; remark: listed apart in the source
[7] = human
[8] = human; remark: listed apart in the source
[9] = human; remark: listed apart in the source
[10] = human, serum, 4383 h
[11] = human; remark: listed apart in the source
[12] = human; remark: listed apart in the source
[13] = human; remark: listed apart in the source
[14] = human; remark: listed apart in the source
[15] = human; remark: listed apart in the source
[16] = human; remark: listed apart in the source
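Wherever Hepatotoxicity (association with vascular disease) is given: count of indexed literature references reporting vascular liver injury in humans, e.g. peliosis hepatitis, hepatic veno-occlusive disease or Budd-Chiari syndrome.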
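Wherever Hepatotoxicity (benign tumour) is given: value is a count of indexed literature references citing a benign tumour confirmed by histopathology.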
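Wherever Hepatotoxicity (choleostasis) is given: human cholestatic liver injury, shown by histopathology or by peak ALT or AST elevation over alkaline phosphatase ratio below 2, value counts indexed literature reports.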
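Wherever Hepatotoxicity (chronic liver disease) is given: chronic liver injury confirmed by histopathology or persistently raised serum aminotransferase activity beyond 6 months, value given as the count of indexed literature references.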
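Wherever Hepatotoxicity (cirrhosis) is given: value is a count of indexed literature references reporting cirrhosis confirmed by histopathology.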
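Wherever Hepatotoxicity (cytolytic) is given: human cytolytic liver injury, shown by histopathology or by a ratio above 5 of peak ALT or AST elevation to alkaline phosphatase elevation, value counts indexed references.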
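Wherever Hepatotoxicity (granulomatous hepatitis) is given: value is a count of indexed literature references reporting granulomatous liver disease confirmed by histopathology.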
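Wherever Hepatotoxicity (malignant tumour) is given: malignant tumour confirmed by histopathology, value gives the count of indexed literature references reporting it.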
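Wherever Hepatotoxicity (severe hepatitis) is given: human clinical data: severe hepatitis, meaning potentially life-threatening liver failure or clinically observed cases, the value counts how many indexed literature references report it.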
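Wherever Hepatotoxicity (steatosis) is given: steatosis confirmed by histopathology, value is the count of indexed references.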

Row | SMILES | Hepatotoxicity (moderate) ([1]; Liver) | Hepatotoxicity (acute) ([2]; Liver) | Hepatotoxicity (successful reintroduction) [3] | Hepatotoxicity (time to onset) [4] | Hepatotoxicity (moderate) [5] | Hepatotoxicity (acute) [6] | Hepatotoxicity (cytolytic) [7] | Hepatotoxicity (choleostasis) [8] | Hepatotoxicity (severe hepatitis) ([9]; Liver) | Hepatotoxicity (chronic liver disease) [10] | Hepatotoxicity (cirrhosis) [11] | Hepatotoxicity (granulomatous hepatitis) [12] | Hepatotoxicity (association with vascular disease) [13] | Hepatotoxicity (steatosis) [14] | Hepatotoxicity (malignant tumour) [15] | Hepatotoxicity (benign tumour) [16] | Hepatotoxicity (cytolytic) ([7]; Liver) | Hepatotoxicity (moderate) [1] | Hepatotoxicity (acute) [2] | Hepatotoxicity (severe hepatitis) [9] | other results
1 | CN(C)CC[C@@H](c1ccc(Cl)cc1)c1ccccn1 [DEXCHLORPHENIRAMINE] | 0% | 0% | yes | 9 days | 0 | 1 | 1 | 0 | 0 | 0 | 0 | 0 | 0 | 0 | 0 | 0 | – | – | – | – | –
2 | CN(C)Cc1ccc(CSCCN/C(=C\[N+](=O)[O-])NCc2ccc3c(c2)OCO3)o1 [NIPEROTIDINE] | 0% | 0% | yes | 15 days - 7 months | 0 | 2 | – | – | 2 | 0 | 0 | – | 0 | 0 | 0 | 0 | 2 | – | – | – | Hepatotoxicity (choleostasis) ([8]; Liver): 2; Hepatotoxicity (granulomatous hepatitis) ([12]; Liver): 0
3 | [Li] [LITHIUM] | – | – | yes | 2 days - 2 months | 4 | 0 | 0 | 0 | – | 1 | 0 | 0 | 0 | 0 | 0 | 0 | – | 0% | 0% | 0 | –
4 | C1CNCCN1 [PIPERAZINE] | 0% | 0% | yes | 3 weeks - 1 month | 0 | 2 | – | – | 0 | 0 | 0 | – | 0 | 0 | 0 | 0 | 1 | – | – | – | Hepatotoxicity (choleostasis) ([8]; Liver): 2; Hepatotoxicity (granulomatous hepatitis) ([12]; Liver): 0
5 | O=c1[nH]c(=O)n(C2CCCO2)cc1F (stereo unspecified) [TEGAFUR] | – | – | yes | 1.5 months - 9 months | 2 | 3 | 1 | 0 | – | 2 | 1 | 0 | 0 | 0 | 0 | 0 | – | 17.5% | 0% | 3 | –
6 | CC(=O)O[C@H]1CC[C@H]2[C@@H]3CC[C@H]4CC(=O)C=C(C)[C@]4(C)[C@H]3CC[C@]12C [METHENOLONE ACETATE] | – | – | yes | 1 month - 15 years | 1 | 5 | 0 | 0 | – | 0 | 0 | 0 | 0 | 0 | 1 | 1 | – | 0% | 0% | 0 | –
